The text below walks through data of ChEMBL document CHEMBL5055653, “Synthesis, microbiological evaluation and structure activity relationship analysis of linezolid analogues with different C5-acylamino substituents” (2021).

One may read the MIC as the least concentration at which growth counts as inhibited.

SMILES strings stand for the structures. Converted amounts (≈) assume the structure as drawn. The source made the active and inactive calls. The calls are words filed in the database; no cut-off is given here.

For test [1], the system named is Staphylococcus aureus. Kind of test: Antibacterial activity against Staphylococcus aureus NCTC 13616 assessed as reduction in bacterial growth incubated for 20 hrs by microplate reader method. It is filed as functional.
Test [2] relates to Staphylococcus aureus. The test can be described thus: Antibacterial activity against Staphylococcus aureus ATCC 9144 assessed as reduction in bacterial growth incubated for 20 hrs by microplate reader method. The test is classed as functional.
Test [3] concerns Staphylococcus aureus. Kind of test: Antibacterial activity against Staphylococcus aureus USA 300 assessed as reduction in bacterial growth incubated for 20 hrs by microplate reader method. It is filed as functional.
In test [4] the test system is Staphylococcus aureus. Kind of test: Antibacterial activity against Staphylococcus aureus 1199B assessed as reduction in bacterial growth incubated for 20 hrs by microplate reader method. It is filed as functional.
Test [5] relates to Enterococcus faecalis. Kind of test: Antibacterial activity against Vanomycin-sensitive Enterococcus faecalis NCTC 775 assessed as reduction in bacterial growth incubated for 20 hrs by microplate reader method. The test is classed as functional.
Test [6] has as its system Enterococcus faecalis. Kind of test: Antibacterial activity against Vanomycin-resistant Enterococcus faecalis NCTC 12201 assessed as reduction in bacterial growth incubated for 20 hrs by microplate reader method. The test is classed as functional.
For the next test, the system named is Enterococcus faecium. Kind of test: Antibacterial activity against Vanomycin-resistant Enterococcus faecium NCTC 12204 assessed as reduction in bacterial growth incubated for 20 hrs by microplate reader method. The test is classed as functional.
Test [7] relates to Acinetobacter baumannii. Kind of test: Antibacterial activity against Acinetobacter baumannii AYE assessed as reduction in bacterial growth incubated for 20 hrs in presence of PMBN by microplate reader method. It is filed as functional, organism-based.
In test [8] the test system is Acinetobacter baumannii. Kind of test: Antibacterial activity against Acinetobacter baumannii ATCC 17978 assessed as reduction in bacterial growth incubated for 20 hrs in presence of PMBN by microplate reader method. The test is classed as functional, organism-based.
Test [9] has as its system Pseudomonas aeruginosa. The test can be described thus: Antibacterial activity against Pseudomonas aeruginosa PAO1 assessed as reduction in bacterial growth incubated for 20 hrs in presence of PMBN by microplate reader method. The test is classed as functional.
In test [10] the test system is Pseudomonas aeruginosa. Kind of test: Antibacterial activity against Pseudomonas aeruginosa NCTC 13437 assessed as reduction in bacterial growth incubated for 20 hrs in presence of PMBN by microplate reader method. The test is classed as functional, organism-based.
The test system of another test is Escherichia coli. Kind of test: Antibacterial activity against Escherichia coli NCTC 12923 assessed as reduction in bacterial growth incubated for 20 hrs in presence of PMBN by microplate reader method. The test is classed as functional, organism-based.

On to `O=C(NC[C@H]1CN(c2ccc(N3CCOCC3)c(F)c2)C(=O)O1)c1cnc(Br)s1`, for which the minimum inhibitory concentration (MIC) amounted to 16 µg/mL (≈ 33 µM) with Staphylococcus aureus [1]; 16 µg/mL (≈ 33 µM) in the test on Staphylococcus aureus [2]; 32 µg/mL (≈ 65.9 µM) in the test with Staphylococcus aureus [3]; 32 µg/mL (≈ 65.9 µM) in the test on Staphylococcus aureus [4]; 32 µg/mL (≈ 65.9 µM) with Enterococcus faecalis [5]; 16 µg/mL (≈ 33 µM) in the test with Enterococcus faecalis [6]. Further, the minimal inhibitory concentration (MIC) was found to be 8 µg/mL (≈ 16.5 µM) with Enterococcus faecium and 16 µg/mL with Pseudomonas aeruginosa [9]. Further, the result in the test on Acinetobacter baumannii [7], in the test with Acinetobacter baumannii [8], in the test on Pseudomonas aeruginosa [10] and in the test on Escherichia coli was inactive.

With `Cc1ncsc1C(=O)NC[C@H]1CN(c2ccc(N3CCOCC3)c(F)c2)C(=O)O1`, the MIC amounted to 16 µg/mL (≈ 38.1 µM) in the test on Staphylococcus aureus [1]; 16 µg/mL (≈ 38.1 µM) in the test with Staphylococcus aureus [2]; 16 µg/mL (≈ 38.1 µM) in the test on Staphylococcus aureus [3]; 32 µg/mL (≈ 76.1 µM) with Staphylococcus aureus [4]; 32 µg/mL (≈ 76.1 µM) with Enterococcus faecalis [5]; 16 µg/mL (≈ 38.1 µM) in the test on Enterococcus faecalis [6]. The MIC amounted to 16 µg/mL (≈ 38.1 µM) in the test with Enterococcus faecium and 16 µg/mL with Pseudomonas aeruginosa [9]. The result in the test with Acinetobacter baumannii [7], in the test on Acinetobacter baumannii [8], with Pseudomonas aeruginosa [10] and in the test with Escherichia coli was inactive.

In the case of `O=C(NC[C@H]1CN(c2ccc(N3CCOCC3)c(F)c2)C(=O)O1)c1cncs1`, the MIC with Staphylococcus aureus [1], in the test on Staphylococcus aureus [2], in the test on Staphylococcus aureus [3], with Staphylococcus aureus [4], in the test on Enterococcus faecalis [5] and in the test with Enterococcus faecalis [6] was 16 µg/mL (≈ 39.4 µM) in each case. In addition, the MIC was found to be 16 µg/mL (≈ 39.4 µM) with Enterococcus faecium and 16 µg/mL with Pseudomonas aeruginosa [9]. The result in the test with Acinetobacter baumannii [7], with Acinetobacter baumannii [8], in the test on Pseudomonas aeruginosa [10] and in the test with Escherichia coli was inactive.

Turning to `O=C(NC[C@H]1CN(c2ccc(N3CCOCC3)c(F)c2)C(=O)O1)[C@@H]1CCNC1`, the MIC in the test on Staphylococcus aureus [1], with Staphylococcus aureus [2], in the test with Staphylococcus aureus [3], in the test on Staphylococcus aureus [4], in the test with Enterococcus faecalis [5] and with Enterococcus faecalis [6] was over 128 µg/mL each time. Moreover, the minimum inhibitory concentration (MIC) with Enterococcus faecium is over 128 µg/mL. Further, the outcome in the test with Acinetobacter baumannii [7], in the test on Acinetobacter baumannii [8], in the test on Pseudomonas aeruginosa [9], in the test on Pseudomonas aeruginosa [10] and in the test with Escherichia coli was inactive.

Turning to `O=C(NC[C@H]1CN(c2ccc(N3CCOCC3)c(F)c2)C(=O)O1)c1cccs1`, the MIC in the test on Staphylococcus aureus [1] amounted to 16 µg/mL (≈ 39.5 µM); in the test with Staphylococcus aureus [2], 16 µg/mL (≈ 39.5 µM); in the test with Staphylococcus aureus [3], 16 µg/mL (≈ 39.5 µM); with Staphylococcus aureus [4], 8 µg/mL (≈ 19.7 µM); in the test on Enterococcus faecalis [5] it was 16 µg/mL (≈ 39.5 µM); in the test on Enterococcus faecalis [6], 8 µg/mL (≈ 19.7 µM). The MIC worked out at 8 µg/mL (≈ 19.7 µM) in the test on Enterococcus faecium and 16 µg/mL with Pseudomonas aeruginosa [9]. Moreover, the outcome in the test on Acinetobacter baumannii [7], in the test on Acinetobacter baumannii [8], in the test with Pseudomonas aeruginosa [10] and with Escherichia coli was inactive.
